Consider eleven molecules from US8772319B2 (priority 2004, dated 2014).

The target of series [1] is T1, human dopamine transporter (hDAT) (Homo sapiens, UniProt Q01959). Description: biochemical. The class given is binding. The following applies: for Binding Ratios NET/DAT / Binding Ratios SERT/DAT: Table 5.
Another series deals with T2, 5-HT1A receptor (Homo sapiens, UniProt P08908).
T2 construct: expressed in transfected cells; host or cells: HA7 cells
T2 sequence (P08908 1-422): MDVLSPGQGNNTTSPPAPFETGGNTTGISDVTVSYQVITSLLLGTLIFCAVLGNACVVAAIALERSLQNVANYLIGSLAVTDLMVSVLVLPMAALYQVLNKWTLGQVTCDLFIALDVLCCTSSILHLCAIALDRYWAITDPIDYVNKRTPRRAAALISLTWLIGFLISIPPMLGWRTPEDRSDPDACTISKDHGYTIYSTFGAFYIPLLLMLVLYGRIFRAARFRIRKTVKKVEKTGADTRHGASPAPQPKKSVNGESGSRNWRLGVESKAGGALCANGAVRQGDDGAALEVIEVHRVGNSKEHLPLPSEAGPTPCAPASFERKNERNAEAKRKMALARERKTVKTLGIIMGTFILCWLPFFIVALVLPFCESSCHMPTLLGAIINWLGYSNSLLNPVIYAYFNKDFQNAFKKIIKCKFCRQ
Description: 5-HT1A receptor binding, HA7 cells, [3H]8-OH-DPAT.

A further series has as its target T3, 5-HT2A receptor (Rattus norvegicus, UniProt P14842).
T3 construct: expressed in transfected cells; host or cells: NIH-3T3-GF6 cells
Description: 5-HT2A receptor binding, NIH-3T3-GF6 cells, [3H]ketanserin.

Series [2] has as its target T4, D2 receptor (Homo sapiens, UniProt P14416).
T4 construct: expressed in transfected cells; host or cells: CHOp- cells (CHOp-D2)
Description: D2 receptor binding, CHOp- cells, [3H]YM-09151-2.

The target of series [3] is T5, D3 receptor (Homo sapiens, UniProt P35462).
T5 construct: expressed in transfected cells; host or cells: CHOp- cells (CHOp-D3)
Description: D3 receptor binding, CHOp- cells, [3H]YM-09151-2.

The target of another series is T6, D1 receptor (Homo sapiens, UniProt P21728).
T6 construct: expressed in transfected cells; host or cells: LHD1 cells
Description: D1 receptor binding, LHD1 cells, [3H]SCH 23,390.

For series [4], the target named is T5, D3 receptor. Description: Inhibition of quinpirole-stimulated mitogenesis ([3H]thymidine incorporation), CHOp-D3 cells. The class given is cell-based. (In general: Incorporation of labelled thymidine or its analogues reports DNA synthesis.)
The target in the next series is T7, 5-HT2C receptor (Rattus norvegicus, UniProt P08909).
T7 construct: expressed in transfected cells; host or cells: NIH-3T3-P cells
T7 sequence (P08909 33-460): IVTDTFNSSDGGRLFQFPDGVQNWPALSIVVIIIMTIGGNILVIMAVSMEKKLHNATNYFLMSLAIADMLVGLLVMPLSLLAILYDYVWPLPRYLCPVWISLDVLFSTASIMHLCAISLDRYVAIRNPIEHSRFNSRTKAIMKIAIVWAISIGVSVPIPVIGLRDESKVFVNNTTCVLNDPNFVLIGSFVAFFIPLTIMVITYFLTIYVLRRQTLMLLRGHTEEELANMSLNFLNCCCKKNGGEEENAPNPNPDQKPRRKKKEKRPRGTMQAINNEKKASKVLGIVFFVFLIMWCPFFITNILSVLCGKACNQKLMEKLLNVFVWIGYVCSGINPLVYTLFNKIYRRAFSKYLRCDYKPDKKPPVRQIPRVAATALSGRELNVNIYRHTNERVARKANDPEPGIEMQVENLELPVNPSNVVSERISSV
Description: 5-HT2C receptor binding, NIH-3T3-P cells, [3H]mesulergine.

In series [5] the target is T1, human dopamine transporter (hDAT). Description: cell-based. The following applies: for Discrimination Ratios (DR) [3H]DA reuptake/DAT binding: Table 6; for IC50: Reuptake Inhibition [3H]DA IC50, Table 6.
Series [6] addresses T4, D2 receptor. Description: cell-based. The following applies: read-out: D2 Antagonist activity IC50.
For series [7], the target named is T8, human serotonin transporter (hSERT) (Homo sapiens, UniProt P31645). Description: cell-based. The following applies: Reuptake Inhibition [3H]5-HT IC50, Table 6.
For series [8], the target named is T9, human norepinephrine transporter (hNET) (Homo sapiens, UniProt P23975). Description: biochemical. The following applies: Table 5; [125I]RTI-55; oxalate salts; read-out: NET binding affinity Ki.
Series [9] concerns the target T9, human norepinephrine transporter (hNET). Description: cell-based. The settings on record: Table 6; read-out: Reuptake Inhibition [3H]NE IC50.
In series [10] the target is T8, human serotonin transporter (hSERT). Description: biochemical. The following applies: Table 5; [125I]RTI-55; oxalate salts; read-out: SERT binding affinity Ki.
Another series has as its system male Swiss-Webster mice. Description: Cocaine/compound interaction study on locomotor activity. The settings on record: 20 mg/kg of cocaine. In kind it is in vivo, mouse.
[11] abbreviates: Table 7, rat receptors, NIH-3T3-GF6 cells, [3H]ketanserin, read-out: 5-HT2A Affinity Ki.
[12] abbreviates: Table 7, CHOp- cells, [3H]YM-09151-2, read-out: D2 Affinity Ki.
Where [13] appears, read: Table 7, CHOp- cells, [3H]YM-09151-2, read-out: D3 Affinity Ki.
Where [14] appears, read: Table 7, LHD1 cells, [3H]SCH 23,390, read-out: D1 Affinity Ki.

The term Ki denotes a dissociation constant, usually derived from enzyme kinetics or from competition with a known ligand. The term IC50 denotes the concentration needed to halve the response being measured. A word on the melting point: it is the temperature, or range, at which the solid turns liquid.

Structures are written as SMILES. Structures can show the parent of a compound that is named as a salt. Where two headings read alike, the source gives them in different places.

T8 sequence (P31645 whole entry): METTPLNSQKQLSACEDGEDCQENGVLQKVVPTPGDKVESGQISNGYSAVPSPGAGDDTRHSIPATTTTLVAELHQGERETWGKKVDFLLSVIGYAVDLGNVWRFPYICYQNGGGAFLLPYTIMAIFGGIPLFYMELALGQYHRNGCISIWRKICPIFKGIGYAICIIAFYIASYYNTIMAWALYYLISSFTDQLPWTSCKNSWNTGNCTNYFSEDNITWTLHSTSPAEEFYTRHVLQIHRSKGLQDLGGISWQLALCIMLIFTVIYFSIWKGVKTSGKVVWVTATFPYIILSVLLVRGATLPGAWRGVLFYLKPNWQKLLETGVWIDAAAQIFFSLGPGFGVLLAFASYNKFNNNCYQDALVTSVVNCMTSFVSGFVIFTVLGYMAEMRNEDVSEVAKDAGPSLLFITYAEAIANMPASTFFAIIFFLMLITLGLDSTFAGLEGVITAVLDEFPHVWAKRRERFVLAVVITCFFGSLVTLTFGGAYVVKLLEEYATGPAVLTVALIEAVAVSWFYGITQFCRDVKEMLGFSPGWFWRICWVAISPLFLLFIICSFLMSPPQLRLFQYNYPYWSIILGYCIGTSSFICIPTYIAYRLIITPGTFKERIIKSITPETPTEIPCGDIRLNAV
T9 sequence (P23975 whole entry): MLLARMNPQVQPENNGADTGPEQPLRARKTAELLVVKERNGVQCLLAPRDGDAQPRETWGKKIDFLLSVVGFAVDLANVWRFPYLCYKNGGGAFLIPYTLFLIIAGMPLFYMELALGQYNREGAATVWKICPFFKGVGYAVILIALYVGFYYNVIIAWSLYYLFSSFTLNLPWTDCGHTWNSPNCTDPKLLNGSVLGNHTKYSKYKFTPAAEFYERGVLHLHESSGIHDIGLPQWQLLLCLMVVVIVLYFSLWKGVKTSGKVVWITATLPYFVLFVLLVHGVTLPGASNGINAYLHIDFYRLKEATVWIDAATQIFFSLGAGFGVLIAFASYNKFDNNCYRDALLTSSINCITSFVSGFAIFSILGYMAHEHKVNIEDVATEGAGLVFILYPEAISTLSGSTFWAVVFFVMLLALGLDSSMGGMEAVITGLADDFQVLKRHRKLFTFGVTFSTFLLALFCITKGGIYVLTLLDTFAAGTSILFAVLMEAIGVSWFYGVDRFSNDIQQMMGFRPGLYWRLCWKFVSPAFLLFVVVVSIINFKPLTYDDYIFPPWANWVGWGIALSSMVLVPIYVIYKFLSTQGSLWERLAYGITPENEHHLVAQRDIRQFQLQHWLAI
T5 sequence (P35462 whole entry): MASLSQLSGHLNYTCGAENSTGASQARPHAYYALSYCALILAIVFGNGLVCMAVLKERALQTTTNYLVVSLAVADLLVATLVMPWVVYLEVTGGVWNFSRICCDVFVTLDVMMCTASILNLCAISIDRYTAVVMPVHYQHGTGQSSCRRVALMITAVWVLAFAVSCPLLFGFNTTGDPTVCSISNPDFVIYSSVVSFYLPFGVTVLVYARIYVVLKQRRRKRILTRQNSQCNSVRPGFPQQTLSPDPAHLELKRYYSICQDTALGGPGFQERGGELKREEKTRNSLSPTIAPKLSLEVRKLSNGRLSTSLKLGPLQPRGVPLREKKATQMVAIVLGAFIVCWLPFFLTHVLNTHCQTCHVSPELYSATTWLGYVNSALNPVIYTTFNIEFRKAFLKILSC
T3 sequence (P14842 whole entry): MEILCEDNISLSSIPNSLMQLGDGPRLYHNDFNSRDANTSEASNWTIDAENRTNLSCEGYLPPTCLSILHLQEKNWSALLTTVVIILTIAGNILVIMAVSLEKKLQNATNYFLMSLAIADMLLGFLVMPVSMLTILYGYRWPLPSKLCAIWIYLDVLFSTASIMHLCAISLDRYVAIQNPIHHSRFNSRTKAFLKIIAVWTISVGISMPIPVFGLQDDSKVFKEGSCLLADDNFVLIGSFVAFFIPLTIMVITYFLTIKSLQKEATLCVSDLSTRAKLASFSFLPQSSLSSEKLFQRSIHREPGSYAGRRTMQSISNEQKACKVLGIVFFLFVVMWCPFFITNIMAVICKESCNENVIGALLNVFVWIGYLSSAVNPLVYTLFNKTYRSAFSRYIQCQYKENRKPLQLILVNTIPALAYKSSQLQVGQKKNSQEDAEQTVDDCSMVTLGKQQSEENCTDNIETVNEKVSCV
T1 sequence (Q01959 whole entry): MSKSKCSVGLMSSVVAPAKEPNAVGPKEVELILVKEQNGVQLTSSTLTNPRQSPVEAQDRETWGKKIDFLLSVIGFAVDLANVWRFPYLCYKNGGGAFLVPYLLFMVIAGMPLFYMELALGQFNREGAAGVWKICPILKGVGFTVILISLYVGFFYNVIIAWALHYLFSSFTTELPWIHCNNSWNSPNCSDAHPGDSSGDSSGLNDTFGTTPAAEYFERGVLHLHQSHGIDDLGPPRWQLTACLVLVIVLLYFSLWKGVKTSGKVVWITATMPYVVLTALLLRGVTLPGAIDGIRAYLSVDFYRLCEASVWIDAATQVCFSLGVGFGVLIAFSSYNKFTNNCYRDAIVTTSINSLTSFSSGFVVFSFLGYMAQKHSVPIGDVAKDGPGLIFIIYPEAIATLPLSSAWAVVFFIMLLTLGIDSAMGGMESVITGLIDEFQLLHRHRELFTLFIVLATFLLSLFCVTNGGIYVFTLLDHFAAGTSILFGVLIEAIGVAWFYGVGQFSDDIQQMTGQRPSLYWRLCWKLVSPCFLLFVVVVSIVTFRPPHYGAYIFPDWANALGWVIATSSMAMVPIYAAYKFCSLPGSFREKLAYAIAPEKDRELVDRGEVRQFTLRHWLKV
T4 sequence (P14416 whole entry): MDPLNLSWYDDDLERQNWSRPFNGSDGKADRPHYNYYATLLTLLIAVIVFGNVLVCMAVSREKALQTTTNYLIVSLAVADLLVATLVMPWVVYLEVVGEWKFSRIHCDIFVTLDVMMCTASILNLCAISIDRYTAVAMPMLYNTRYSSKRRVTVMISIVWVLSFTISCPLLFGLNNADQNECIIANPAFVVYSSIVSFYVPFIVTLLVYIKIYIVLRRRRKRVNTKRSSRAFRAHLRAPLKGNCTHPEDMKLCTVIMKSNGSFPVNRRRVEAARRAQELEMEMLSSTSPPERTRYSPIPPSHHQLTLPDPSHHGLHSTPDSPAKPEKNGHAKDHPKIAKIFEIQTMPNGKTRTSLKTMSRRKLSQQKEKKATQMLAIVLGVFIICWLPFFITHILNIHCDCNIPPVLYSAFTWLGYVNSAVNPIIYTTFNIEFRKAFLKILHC
T6 sequence (P21728 whole entry): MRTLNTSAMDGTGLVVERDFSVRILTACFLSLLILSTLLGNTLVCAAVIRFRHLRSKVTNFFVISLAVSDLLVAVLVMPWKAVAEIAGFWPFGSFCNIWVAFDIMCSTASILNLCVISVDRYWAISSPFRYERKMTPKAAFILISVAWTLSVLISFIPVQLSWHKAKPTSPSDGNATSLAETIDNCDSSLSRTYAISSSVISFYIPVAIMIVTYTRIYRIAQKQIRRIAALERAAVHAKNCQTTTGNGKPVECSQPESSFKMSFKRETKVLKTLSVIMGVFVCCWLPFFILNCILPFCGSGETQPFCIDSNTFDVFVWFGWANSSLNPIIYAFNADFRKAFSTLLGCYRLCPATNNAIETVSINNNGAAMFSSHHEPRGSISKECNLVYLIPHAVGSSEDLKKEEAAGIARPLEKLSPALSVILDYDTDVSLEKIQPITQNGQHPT

Take `Fc1ccc(C(OCCCCN2CCN(c3ccc(Cl)cc3)CC2)c2ccc(F)cc2)cc1` [Compound 34, 1-(4-Chlorophenyl)-4-[4-[bis(4-fluorophenyl)methoxy]butyl]piperazine]: the “Binding Ratios NET/DAT” value in series [1] was determined as 7.6. In [1], the “Binding Ratios SERT/DAT” value is recorded as 0.7. Also, the Ki is more than 10 µM at 5-HT1A receptor; 1.15 ± 0.0442 µM at 5-HT2A receptor; more than 10 µM on D2 receptor [2]; 0.34 ± 0.143 µM at D3 receptor [3]; more than 10 µM at D1 receptor; more than 10 µM on 5-HT2C receptor. Besides, the concentration for half-maximal inhibition (IC50) at D3 receptor [4] was found to be 0.00255 µM. Moreover, the “antagonistic activity at D3 site” value at D3 receptor [4] (Table 7) was “selective and strong antagonistic activity”. In addition, in [5], the “Discrimination Ratios (DR) [3H]DA reuptake/DAT binding” value is recorded as 23.4.
Turning to `O=[N+]([O-])c1ccc(N2CCN(CCCCOC(c3ccc(F)cc3)c3ccc(F)cc3)CC2)cc1` (as salt: oxalate) [Compound 38, 1-[4-Nitrophenyl]-4-[1-[bis(4-fluorophenyl)methoxy]-4-butyl]piperazine], the melting point was in the range of 196 to 198 °C.
On to `O=[N+]([O-])c1ccc(S(=O)(=O)N2CCN(CCCCOC(c3ccc(F)cc3)c3ccc(F)cc3)CC2)cc1` (as salt: oxalate) [Compound 42, 1-[4-[Bis(4-fluorophenyl)methoxy]butyl]-4-(4-nitrobenzenesulfonyl)piperazine], for which the melting point lay within 170 to 173 °C.
As for `Fc1ccc(C(OCCCCN2CCN(Cc3ccc4c(c3)OCO4)CC2)c2ccc(F)cc2)cc1` (as salt: oxalate) [Compound 41, 1-Benzo[1,3]dioxol-5-ylmethyl-4-[4-[bis(4-fluorophenyl)methoxy]butyl]piperazine], the melting point fell in the range of 231 to 234 °C.
The same measure, in the same setting: the value for `Fc1ccc(C(OCCCCN2CCN(c3ccc(Cl)cc3)CC2)c2ccc(F)cc2)cc1` (as salt: oxalate) [Compound 34, 1-(4-Chlorophenyl)-4-[4-[bis(4-fluorophenyl)methoxy]butyl]piperazine] was 179 to 181 °C; that for `O=C(c1ccccc1)N1CCN(CCCCOC(c2ccc(F)cc2)c2ccc(F)cc2)CC1` (as salt: oxalate) [Compound 40, 1-Benzoyl-4-[1-[bis(4-fluorophenyl)methoxy]-4-butyl]piperazine] was 121 to 123 °C.
As to `Fc1ccc(C(OCCCCN2CCN(c3ccccc3)CC2)c2ccc(F)cc2)cc1` [Compound 29, 1-Phenyl-4-[4-[bis(4-fluorophenyl)methoxy]butyl]piperazine], the “Binding Ratios NET/DAT” value in series [1] is on record as 3.3. For the same molecule, the “Binding Ratios SERT/DAT” value in series [1] is recorded as 0.8. In addition, the inhibitory constant (Ki) at 5-HT1A receptor was 0.285 ± 0.0764 µM; at 5-HT2A receptor (setting [11]) it was 0.404 ± 0.0526 µM; at D2 receptor [2] (setting [12]), 0.447 ± 0.0739 µM; on D3 receptor [3] (setting [13]), 0.242 ± 0.00741 µM; at D1 receptor (setting [14]), 2.43 ± 0.367 µM; at 5-HT2C receptor (Table 7, bound given in μM, read-out: 5-HT2C Affinity Ki) it was more than 10 µM. In addition, the 50% inhibitory concentration (IC50) was determined as 0.12 µM on D2 receptor [6] and 0.0446 µM on D3 receptor [4]. Moreover, in [5], the “Discrimination Ratios (DR) [3H]DA reuptake/DAT binding” value stood at 23.2.
With `O=C(c1ccccc1)N1CCN(CCCCOC(c2ccc(F)cc2)c2ccc(F)cc2)CC1` [Compound 40, 1-Benzoyl-4-[1-[bis(4-fluorophenyl)methoxy]-4-butyl]piperazine], the inhibitory constant (Ki) in [1] worked out at 0.0197 ± 0.0025 µM; at 5-HT1A receptor it was 1.56 ± 0.271 µM; on 5-HT2A receptor (setting [11]), 4.8 ± 2.09 µM; in [8], 0.365 ± 0.069 µM; on D2 receptor [2] (setting [12]) it was 0.0955 ± 0.0197 µM; in series [10], 0.087 ± 0.043 µM. Besides, the Ki came out at 0.119 ± 0.0498 µM on D3 receptor [3] (setting [13]); 6.64 ± 0.313 µM at D1 receptor (setting [14]); 4.64 ± 0.586 µM on 5-HT2C receptor (Table 7, rat receptors, [3H]mesulergine, read-out: 5-HT2C Affinity Ki). Besides, the “Binding Ratios NET/DAT” value in series [1] stood at 18.5. Moreover, in series [1], the “Binding Ratios SERT/DAT” value stood at 4.4. Besides, the IC50 amounted to 2.17 ± 0.37 µM in [7]; 0.032 ± 0.01 µM in [9]; 0.183 µM at D2 receptor [6]; 0.222 µM at D3 receptor [4]; 0.64 ± 0.24 µM in series [5]. Further, in series [5], the “Discrimination Ratios (DR) [3H]DA reuptake/DAT binding” value was found to be 32.5.
Molecule `O=C1CN(CCCCOC(c2ccc(F)cc2)c2ccc(F)cc2)CCN1` (as salt: oxalate) [Compound 27, 2-Oxo-4-[4-[bis(4-fluorophenyl)methoxy]butyl]piperazine] gave a melting point of 120 to 123 °C.
With `COc1ccccc1N1CCN(CCCCOC(c2ccc(F)cc2)c2ccc(F)cc2)CC1` [Compound 35, 1-(2-Methoxyphenyl)-4-[4-[bis(4-fluorophenyl)methoxy]butyl]piperazine], the inhibition constant Ki is 0.0262 ± 0.0025 µM in series [1]; 0.0349 ± 0.0067 µM at 5-HT1A receptor; 0.698 ± 0.204 µM on 5-HT2A receptor; 0.092 ± 0.011 µM in [8]; 0.134 ± 0.0217 µM on D2 receptor [2]; 0.255 ± 0.089 µM in series [10]. Also, the figures for the inhibition constant Ki at D3 receptor [3], on D1 receptor and at 5-HT2C receptor were 0.118 ± 0.0319 µM, 0.777 ± 0.185 µM and 3 ± 0.0731 µM, respectively. The “Binding Ratios NET/DAT” value in [1] is listed as 3.5. Also, the “Binding Ratios SERT/DAT” value in [1] is 9.7. Further, the “binding for 5-HT1A” value on 5-HT1A receptor (Table 7) is “moderate binding”. For the same molecule, the IC50 stood at 1.23 ± 0.024 µM in series [7]; 0.176 ± 0.079 µM in series [9]; 0.0844 µM at D2 receptor [6]; 0.0567 µM at D3 receptor [4]; 0.301 ± 0.016 µM in series [5]. For the same molecule, in the series on male Swiss-Webster mice, the “Attenuation of cocaine-induced LMA” value is recorded as “Attenuation”. Also, the “Discrimination Ratios (DR) [3H]DA reuptake/DAT binding” value in series [5] is reported as 11.5.
With `COc1ccccc1N1CCN(CCCCOC(c2ccc(F)cc2)c2ccc(F)cc2)CC1` (as salt: oxalate) [Compound 35, 1-(2-Methoxyphenyl)-4-[4-[bis(4-fluorophenyl)methoxy]butyl]piperazine], the melting point was 139 to 142 °C.
